The record followed here is article PMC8533206 (Antioxidants, 2021).

Experiment [1] has as its system PC12 cells. The experiment can be described thus: Protective effect against rotenone-induced cytotoxicity in PC12 cells (MTT). The settings on record: Rattus norvegicus, PC-12, read-out: IC50 against rotenone-induced cytotoxicity. The method, then:
(§1) PC12 cells were routinely maintained in RPMI-1640 media containing 100 IU/mL penicillin, and 100 μg/mL streptomycin supplemented by 10% heat-inactivated HS, 5% FBS in a humidified incubator containing 5% CO2 and 95% air at 37 °C [25]. The cell culture media was changed every two days. To perform experiments, cells were plated on poly-D-lysine/laminin-coated 24-well plates at a density of 3 × 10^5 cells/well and incubated for at least 24 h to allow cell adhesion.
(§2) To examine the effects of the test compounds on cell survival, cells were incubated in low serum media (1% HS, 1% FBS, 100 IU/mL penicillin, and 100 μg/mL streptomycin) with test compounds at the concentrations of 10 and 30 μM or an equivalent volume of vehicle control (DMSO at the final concentration of 0.3%) for 24 h. The media containing test compounds was sonicated at room temperature for 30 min to assure adequate dissolution in the media. […]
(§3) After the desired treatment, cell viability was determined by MTT assay as described previously, with slight modification. […] The absorbance of the dissolved solution was measured at 550 nm using a microplate reader (SpectraMax M2e, Molecular Devices, Sunnyvale, CA, USA). The cell viability was presented as the percentage of the absorbance measured in the vehicle-treated control cells. […]

The test system of experiment [2] is PC12 cells. The experiment is described as follows: Protective effect against 6-OHDA-induced cytotoxicity in PC12 cells (MTT). The following applies: Rattus norvegicus, PC-12, read-out: IC50 against 6-OHDA-induced cytotoxicity. The method, then:
as §1, §2, §3

For orientation: IC50 means the concentration needed to halve the response being measured. For `O=C(Nc1ccc(Br)cc1)c1ccc2[nH]ccc2c1` [Compound 8b, N-(4-bromophenyl)-1H-indole-5-carboxamide], the IC50 was 3.3 µM in the experiment on PC12 cells [1] and 2.8 µM with PC12 cells [2].
